Results from US20240383915A1, “OXAZEPINE COMPOUNDS AND USES THEREOF IN THE TREATMENT OF CANCER” (Genentech, Inc., priority 2021, published 2024).
pIC50: −log10 of the molar value.

Assays:
KRas = KRas (Homo sapiens (Human), UniProt P01116); assay: KRas GDP HTRF (BODIPY-GDP exchange TR-FRET); type: biochemical
Method: KRAS Biochemical Assay—BODIPY-GDP Exchange TR-FRET. Biochemical compound potencies were assessed by evaluating inhibition of SOS1-mediated nucleotide exchange in KRAS G12D. The SOS1-promoted exchange of fluorescently-labeled GDP (BODIPY-GDP) was monitored by time-resolved fluorescence resonance energy transfer (TR-FRET). Compounds solubilized in DMSO were dispensed as concentration series into 384-well white assay plates. […] The reaction was initiated with the addition of 5 μL of 3 nM recombinant human SOS1 and 300 nM BODIPY-GDP in assay buffer. After a 60-minute incubation, the fluorescence was measured with excitation at 337 nm and emission at 490 and 520 nm. The TR-FRET ratio was determined as the fluorescence at 520 nm divided by the fluorescence at 490 nm multiplied by 10,000. […] The normalized TR-FRET results were plotted against compound concentration, and the data fit to a 4-parameter Hill equation to determine the IC50 values.

KRas(G12V) = KRas(G12V) (Homo sapiens (Human), UniProt P01116, G12V); assay: KRas(G12V) GDP HTRF (BODIPY-GDP exchange TR-FRET); type: biochemical
Chain of KRas(G12V) (P01116-2 other isoform, or with tags, fused parts or gaps G12V): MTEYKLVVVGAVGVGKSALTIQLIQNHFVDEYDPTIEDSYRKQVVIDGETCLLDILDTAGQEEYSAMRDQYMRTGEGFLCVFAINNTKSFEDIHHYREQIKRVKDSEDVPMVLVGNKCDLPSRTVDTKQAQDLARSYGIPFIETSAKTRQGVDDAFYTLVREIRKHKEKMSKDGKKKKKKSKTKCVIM

Chain of KRas (P01116-2 other isoform, or with tags, fused parts or gaps): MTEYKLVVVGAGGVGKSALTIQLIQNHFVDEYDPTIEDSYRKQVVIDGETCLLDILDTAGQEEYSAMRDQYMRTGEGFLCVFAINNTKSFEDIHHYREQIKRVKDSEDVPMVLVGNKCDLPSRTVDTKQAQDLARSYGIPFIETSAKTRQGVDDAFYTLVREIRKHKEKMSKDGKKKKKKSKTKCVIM

SMILES | pIC50 (KRas) | pIC50 (KRas(G12V))
Cc1cc(N)nc(-c2c(Cl)c3c4c(nc(OC[C@@H]5CCCN5CC(F)F)nc4c2F)N([C@H](C)c2nccnc2N)CCO3)c1C(F)(F)F (atropisomer, axis not shown) [Example 158b, 3-((R)-1-((S)-9-(6-amino-4-methyl-3-(trifluoromethyl)pyridin-2-yl)-8-chloro-2-(((S)-1-(2,2-difluoroethyl)pyrrolidin-2-yl)methoxy)-10-fluoro-5,6-dihydro-4H-[1,4]oxazepino[5,6,7-de]quinazolin-4-yl)ethyl)pyrazin-2-amine] | 6.17 | 7.01
Cc1cc(N)nc(-c2c(Cl)c3c4c(nc(OC[C@@]56CCCN5CC(F)(F)C6)nc4c2F)N([C@H](C)c2nccnc2N)CCO3)c1C(F)(F)F (atropisomer, axis not shown) [Example 165a, 3-((R)-1-((R)-9-(6-amino-4-methyl-3-(trifluoromethyl)pyridin-2-yl)-8-chloro-2-(((S)-2,2-difluorotetrahydro-1H-pyrrolizin-7a(5H)-yl)methoxy)-10-fluoro-5,6-dihydro-4H-[1,4]oxazepino[5,6,7-de]quinazolin-4-yl)ethyl)pyrazin-2-amine] | 8.67 | 9.16
Cc1cc(N)nc(-c2c(Cl)c3c4c(nc(OC[C@@]56CCCN5CC(F)(F)C6)nc4c2F)N([C@H](C)c2nccnc2N)CCO3)c1C(F)(F)F (atropisomer, axis not shown) [Example 165b, 3-((R)-1-((S)-9-(6-amino-4-methyl-3-(trifluoromethyl)pyridin-2-yl)-8-chloro-2-(((S)-2,2-difluorotetrahydro-1H-pyrrolizin-7a(5H)-yl)methoxy)-10-fluoro-5,6-dihydro-4H-[1,4]oxazepino[5,6,7-de]quinazolin-4-yl)ethyl)pyrazin-2-amine] | 5.70 | 6.05
Cc1cc(N)nc(-c2c(Cl)c3c4c(nc(OC[C@]56CCCN5CC(F)(F)C6)nc4c2F)N([C@H](C)c2nccnc2N)CCO3)c1C(F)(F)F (atropisomer, axis not shown) [Example 166a, 3-((R)-1-((R)-9-(6-amino-4-methyl-3-(trifluoromethyl)pyridin-2-yl)-8-chloro-2-(((R)-2,2-difluorotetrahydro-1H-pyrrolizin-7a(5H)-yl)methoxy)-10-fluoro-5,6-dihydro-4H-[1,4]oxazepino[5,6,7-de]quinazolin-4-yl)ethyl)pyrazin-2-amine] | 8.69 | 9.25
Cc1cc(N)nc(-c2c(Cl)c3c4c(nc(OC[C@]56CCCN5CC(F)(F)C6)nc4c2F)N([C@H](C)c2nccnc2N)CCO3)c1C(F)(F)F (atropisomer, axis not shown) [Example 166b, 3-((R)-1-((S)-9-(6-amino-4-methyl-3-(trifluoromethyl)pyridin-2-yl)-8-chloro-2-(((R)-2,2-difluorotetrahydro-1H-pyrrolizin-7a(5H)-yl)methoxy)-10-fluoro-5,6-dihydro-4H-[1,4]oxazepino[5,6,7-de]quinazolin-4-yl)ethyl)pyrazin-2-amine] | 5.76 | 6.19
Cc1cc(N)nc(-c2c(Cl)c3c4c(nc(OC[C@@H]5C[C@@]6(CN5C)CC6(F)F)nc4c2F)N([C@H](C)c2nccnc2N)CCO3)c1C(F)(F)F (atropisomer, axis not shown) [Example 171a, 3-((R)-1-((R)-9-(6-amino-4-methyl-3-(trifluoromethyl)pyridin-2-yl)-8-chloro-2-(((3S,6S)-1,1-difluoro-5-methyl-5-azaspiro[2.4]heptan-6-yl)methoxy)-10-fluoro-5,6-dihydro-4H-[1,4]oxazepino[5,6,7-de]quinazolin-4-yl)ethyl)pyrazin-2-amine] | 8.66 | 9.15
Cc1cc(N)nc(-c2c(Cl)c3c4c(nc(OC[C@@H]5C[C@@]6(CN5C)CC6(F)F)nc4c2F)N([C@H](C)c2nccnc2N)CCO3)c1C(F)(F)F (atropisomer, axis not shown) [Example 171b, 3-((R)-1-((S)-9-(6-amino-4-methyl-3-(trifluoromethyl)pyridin-2-yl)-8-chloro-2-(((3S,6S)-1,1-difluoro-5-methyl-5-azaspiro[2.4]heptan-6-yl)methoxy)-10-fluoro-5,6-dihydro-4H-[1,4]oxazepino[5,6,7-de]quinazolin-4-yl)ethyl)pyrazin-2-amine] | 5.68 | 6.05
Cc1cc(N)nc(-c2c(Cl)c3c4c(nc(OC[C@H]5CC[C@@H]6CO[C@@H](C)CN56)nc4c2F)N([C@H](C)c2cccnc2N)CCO3)c1C(F)(F)F (atropisomer, axis not shown; (aR)) [Example 93b, 6-((R)-4-((R)-1-(2-aminopyridin-3-yl)ethyl)-8-chloro-10-fluoro-2-(((3S,6R,8aR)-3-methylhexahydro-1H-pyrrolo[2,1-c][1,4]oxazin-6-yl)methoxy)-5,6-dihydro-4H-[1,4]oxazepino[5,6,7-de]quinazolin-9-yl)-4-methyl-5-(trifluoromethyl)pyridin-2-amine] | 9.46 | 9.85
Cc1cc(N)nc(-c2c(Cl)c3c4c(nc(OC[C@H]5CC[C@@H]6CN(CC(F)(F)F)CCN56)nc4c2F)N([C@H](C)c2cccnc2N)CCO3)c1C(F)(F)F (atropisomer, axis not shown; (aR)) [Example 129b, 6-((R)-4-((R)-1-(2-aminopyridin-3-yl)ethyl)-8-chloro-10-fluoro-2-(((6R,8aR)-2-(2,2,2-trifluoroethyl)octahydropyrrolo[1,2-a]pyrazin-6-yl)methoxy)-5,6-dihydro-4H-[1,4]oxazepino[5,6,7-de]quinazolin-9-yl)-4-methyl-5-(trifluoromethyl)pyridin-2-amine] | 9.41 | 9.49
Cc1cc(N)nc(-c2c(Cl)c3c4c(nc(OC[C@@H]5CC[C@H]6CO[C@@H](C)CN56)nc4c2F)N([C@H](C)c2cccnc2N)CCO3)c1C(F)(F)F (atropisomer, axis not shown; (aS)) [Example 93a, 6-((R)-4-((R)-1-(2-aminopyridin-3-yl)ethyl)-8-chloro-10-fluoro-2-(((3S,6S,8aS)-3-methylhexahydro-1H-pyrrolo[2,1-c][1,4]oxazin-6-yl)methoxy)-5,6-dihydro-4H-[1,4]oxazepino[5,6,7-de]quinazolin-9-yl)-4-methyl-5-(trifluoromethyl)pyridin-2-amine] | 9.70 | 10.05
Cc1cc(N)nc(-c2c(Cl)c3c4c(nc(OC[C@@H]5CC[C@H]6CO[C@H](C)CN56)nc4c2F)N([C@H](C)c2cccnc2N)CCO3)c1C(F)(F)F (atropisomer, axis not shown; (aS)) [Example 93c, 6-((R)-4-((R)-1-(2-aminopyridin-3-yl)ethyl)-8-chloro-10-fluoro-2-(((3R,6S,8aS)-3-methylhexahydro-1H-pyrrolo[2,1-c][1,4]oxazin-6-yl)methoxy)-5,6-dihydro-4H-[1,4]oxazepino[5,6,7-de]quinazolin-9-yl)-4-methyl-5-(trifluoromethyl)pyridin-2-amine] | 9.84 | 10.15
C[C@H](c1cccnc1N)N1CCOc2c(Cl)c(-c3cccc4sc(N)nc34)c(F)c3nc(OC[C@@]45CCCN4C[C@H](F)C5)nc1c23 (atropisomer, axis not shown; (aS)) [Example 100a, 4-((R)-4-((R)-1-(2-aminopyridin-3-yl)ethyl)-8-chloro-10-fluoro-2-(((2R,7aS)-2-fluorotetrahydro-1H-pyrrolizin-7a(5H)-yl)methoxy)-5,6-dihydro-4H-[1,4]oxazepino[5,6,7-de]quinazolin-9-yl)benzo[d]thiazol-2-amine] | 10.52 | 10.52
C[C@H](c1cccnc1N)N1CCOc2c(Cl)c(-c3cccc4sc(N)nc34)c(F)c3nc(OC[C@@]45CCCN4C[C@H](F)C5)nc1c23 (atropisomer, axis not shown; (aS)) [Example 100b, 4-((S)-4-((R)-1-(2-aminopyridin-3-yl)ethyl)-8-chloro-10-fluoro-2-(((2R,7aS)-2-fluorotetrahydro-1H-pyrrolizin-7a(5H)-yl)methoxy)-5,6-dihydro-4H-[1,4]oxazepino[5,6,7-de]quinazolin-9-yl)benzo[d]thiazol-2-amine] | 9.45 | 9.14
Cc1cc(N)nc(-c2c(Cl)c3c4c(nc(OC[C@@H]5CC[C@H]6COCCN65)nc4c2F)N([C@H](C)c2nccnc2N)CCO3)c1C(F)(F)F (atropisomer, axis not shown; (aS)) [Example 104b, 3-((R)-1-((S)-9-(6-amino-4-methyl-3-(trifluoromethyl)pyridin-2-yl)-8-chloro-10-fluoro-2-(((6S,8aS)-hexahydro-1H-pyrrolo[2,1-c][1,4]oxazin-6-yl)methoxy)-5,6-dihydro-4H-[1,4]oxazepino[5,6,7-de]quinazolin-4-yl)ethyl)pyrazin-2-amine] | 7.45 | 7.80
Cc1cc(N)nc(-c2c(Cl)c3c4c(nc(OC[C@@H]5CC[C@H]6CN(CC(F)(F)F)CCN56)nc4c2F)N([C@H](C)c2cccnc2N)CCO3)c1C(F)(F)F (atropisomer, axis not shown; (aS)) [Example 129a, 6-((R)-4-((R)-1-(2-aminopyridin-3-yl)ethyl)-8-chloro-10-fluoro-2-(((6S,8aS)-2-(2,2,2-trifluoroethyl)octahydropyrrolo[1,2-a]pyrazin-6-yl)methoxy)-5,6-dihydro-4H-[1,4]oxazepino[5,6,7-de]quinazolin-9-yl)-4-methyl-5-(trifluoromethyl)pyridin-2-amine] | 9.63 | 9.51
